Patent US9193719B2, “1,2,4-triazol-5-ones and analogs exhibiting anti-cancer and anti-proliferative activities” (Deciphera Pharmaceuticals, LLC, priority 2013, dated 2015)

What was measured:
[1] = target: T1, unphosphorylated c-FMS kinase (uFMS, Seq. ID no. 1) (Homo sapiens, UniProt P07333); assay: uFMS kinase enzymatic assay (pyruvate kinase/lactate dehydrogenase coupled); assay type: biochemical; details: ATP 500 μM, rate 3 to 4 h
T1 construct: purchased Millipore
T1 sequence (P07333 538-972): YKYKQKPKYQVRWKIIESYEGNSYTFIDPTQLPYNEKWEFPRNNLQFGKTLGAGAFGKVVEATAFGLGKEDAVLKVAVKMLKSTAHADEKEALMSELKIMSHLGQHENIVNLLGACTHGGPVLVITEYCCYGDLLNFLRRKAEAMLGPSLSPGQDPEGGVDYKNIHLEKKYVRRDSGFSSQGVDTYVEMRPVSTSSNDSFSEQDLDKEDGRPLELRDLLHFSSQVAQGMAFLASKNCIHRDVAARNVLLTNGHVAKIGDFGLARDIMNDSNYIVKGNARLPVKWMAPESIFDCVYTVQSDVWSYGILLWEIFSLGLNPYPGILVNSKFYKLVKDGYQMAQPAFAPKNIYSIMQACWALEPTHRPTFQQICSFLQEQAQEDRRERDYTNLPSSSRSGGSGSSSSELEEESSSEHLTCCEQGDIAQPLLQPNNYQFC
Description: uFMS Kinase (Seq. ID No. 1) Assay
Activity of unphosphorylated c-FMS kinase (uFMS, Seq. ID no. 1) was determined by following the production of ADP from the FMS kinase reaction with ATP and poly E4Y as substrates through coupling with the pyruvate kinase/lactate dehydrogenase system (e.g., Schindler et al. Science (2000) 289: 1938-1942). In this assay, the oxidation of NADH (thus the decrease at A340 nm) was continuously monitored spectrophometrically. The reaction mixture (100 μL) contained FMS (purchased from Millipore) (10 nM), polyE4Y (1 mg/mL), MgCl2 (10 mM), pyruvate kinase (4 units), lactate dehydrogenase (0.7 units), phosphoenol pyruvate (1 mM), NADH (0.28 mM) and ATP (500 μM) in 90 mM Tris buffer containing 0.2% octyl-glucoside and 1% DMSO, pH 7.5. The inhibition reaction was started by mixing serial diluted test compound with the above reaction mixture. The absorption at 340 nm was monitored continuously for 4 hours at 30° C. on Synergy 2 plate reader. The reaction rate was calculated using the 3 to 4 h time frame. Percent inhibition was obtained by comparison of reaction rate with that of a control (i.e. in the absence of test compound). IC50 values were calculated from a series of percent inhibition values determined at a range of inhibitor concentrations using software routines as implemented in the GraphPad Prism software package.

[2] = test system: phospho-FMS in THP-1 cells; assay: Phospho-FMS ELISA assay in THP-1 cells; assay type: cell-based; details: Homo sapiens, 4 h compound, M-CSF stimulation 5 min, read-out: pFMS inhibition in THP-1 cells
Description: THP-1 cells (catalog #TIB-202) were obtained from the ATCC. Briefly, cells were grown in RPMI 1640 supplemented with 10% characterized fetal bovine serum, 1% sodium pyruvate, 1% Penicillin-Streptomycin-Glutamine (PSG) and 55 uM 2-mercaptoethanol (Invitrogen, Carlsbad, Calif.) at 37 degrees Celsius, 5% CO2, 95% humidity. Cells were allowed to expand until reaching 70-95% confluency at which point they were subcultured or harvested for assay use.
A serial dilution of test compound was diluted 1:100 in assay medium (RPMI 1640 supplemented with 10% characterized fetal bovine serum) in a 96 well black clear bottom plate (Corning, Corning, N.Y.). In a separate 96 well black clear bottom plate, one hundred and fifty thousand THP-1 cells were added per well in 100 μL in assay medium. Fifty microliters of diluted compound was then added to the cells. Plates were incubated for 4 hours at 37 degrees Celsius, 5% CO2, 95% humidity. At the end of the incubation period, cells were stimulated with 50 μL of a 100 nM solution of recombinant human M-CSF (catalog #216-MC, R & D Systems, Minneapolis, Minn.) in assay medium and the plate was incubated for 5 minutes at 37 degrees Celsius, 5% CO2, 95% humidity. Lysates were prepared and used to perform the phospho-FMS ELISA as described by the manufacturer (catalog #DYC3268, R & D Systems, Minneapolis, Minn.). GraphPad Prism was used to calculate IC50 values obtained from data generated from the ELISA assay.

IC50 [1] [nM] | IC50 [2] [nM] | SMILES
≤ 10 | ≤ 10 | Cc1nc(-n2nc(Cc3ccccc3)[nH]c2=O)ccc1Oc1ccnc(-c2cnn(C)c2)c1 [Example 2, 3-benzyl-1-(6-methyl-5-((2-(1-methyl-1H-pyrazol-4-yl)pyridin-4-yl)oxy)pyridin-2-yl)-1H-1,2,4-triazol-5(4H)-one]
10 to 100 | 100 to 1000 | Cc1nc(-n2nc(C(C)(C)C)[nH]c2=O)ccc1Oc1ccnc(NC(=O)N(C)C)c1 [Example 30, 3-(4-((6-(3-(tert-butyl)-5-oxo-4,5-dihydro-1H-1,2,4-triazol-1-yl)-2-methylpyridin-3-yl)oxy)pyridin-2-yl)-1,1-dimethylurea]
10 to 100 | 10 to 100 | Cc1ccc(-c2cc(Oc3ccc(-n4nc(C(C)(C)C)[nH]c4=O)nc3C)ccn2)cn1 [Example 10, 3-(tert-butyl)-1-(6-methyl-5-((6′-methyl-[2,3′-bipyridin]-4-yl)oxy)pyridin-2-yl)-1H-1,2,4-triazol-5(4H)-one]
10 to 100 | 10 to 100 | Cc1nc(-n2nc(C(C)C)[nH]c2=O)ccc1Oc1ccnc(-c2cnn(C)c2)c1 [Example 5, 3-isopropyl-1-(6-methyl-5-((2-(1-methyl-1H-pyrazol-4-yl)pyridin-4-yl)oxy)pyridin-2-yl)-1H-1,2,4-triazol-5(4H)-one]
≤ 10 | 100 to 1000 | Cc1nc(-n2nc(C3(C(F)(F)F)CCC3)[nH]c2=O)ccc1Oc1ccnc(-c2cnn(C)c2)c1 [Example 43, 1-(6-methyl-5-((2-(1-methyl-1H-pyrazol-4-yl)pyridin-4-yl)oxy)pyridin-2-yl)-3-(1-(trifluoromethyl)cyclobutyl)-1H-1,2,4-triazol-5(4H)-one]
10 to 100 | 100 to 1000 | COC(C)(C)c1nn(-c2ccc(Oc3ccnc(-c4cnn(C)c4)c3)c(C)n2)c(=O)[nH]1 [Example 16, 3-(2-methoxypropan-2-yl)-1-(6-methyl-5-((2-(1-methyl-1H-pyrazol-4-yl)pyridin-4-yl)oxy)pyridin-2-yl)-1H-1,2,4-triazol-5(4H)-one]
≤ 10 | 10 to 100 | Cc1nc(-n2nc(C(C)(C)C)[nH]c2=O)ccc1Oc1ccnc(-c2ccc(C3CCN(C)CC3)cc2)c1 [Example 14, 3-(tert-butyl)-1-(6-methyl-5-((2-(4-(1-methylpiperidin-4-yl)phenyl)pyridin-4-yl)oxy)pyridin-2-yl)-1H-1,2,4-triazol-5(4H)-one]
≤ 10 | 100 to 1000 | CCn1cc(-c2cc(Oc3ccc(-n4nc(C(C)(C)C)[nH]c4=O)nc3C)ccn2)cn1 [Example 38, 3-(tert-butyl)-1-(5-((2-(1-ethyl-1H-pyrazol-4-yl)pyridin-4-yl)oxy)-6-methylpyridin-2-yl)-1H-1,2,4-triazol-5(4H)-one]
≤ 10 | 10 to 100 | Cc1nc(-n2nc(C3(C)CC3)[nH]c2=O)ccc1Oc1ccnc(-c2cnn(C)c2)c1 [Example 27, 1-(6-methyl-5-((2-(1-methyl-1H-pyrazol-4-yl)pyridin-4-yl)oxy)pyridin-2-yl)-3-(1-methylcyclopropyl)-1H-1,2,4-triazol-5(4H)-one]
10 to 100 | 100 to 1000 | Cc1nc(-n2nc(C(C)(C)C)n(C)c2=O)ccc1Oc1ccnc(-c2cnn(C)c2)c1 [Example 13, 3-(tert-butyl)-4-methyl-1-(6-methyl-5-((2-(1-methyl-1H-pyrazol-4-yl)pyridin-4-yl)oxy)pyridin-2-yl)-1H-1,2,4-triazol-5(4H)-one]
≤ 10 | 10 to 100 | Cc1nc(-n2nc(CC(C)(C)C)[nH]c2=O)ccc1Oc1ccnc(-c2cnn(C)c2)c1 [Example 36, 1-(6-methyl-5-((2-(1-methyl-1H-pyrazol-4-yl)pyridin-4-yl)oxy)pyridin-2-yl)-3-neopentyl-1H-1,2,4-triazol-5(4H)-one]
10 to 100 | 10 to 100 | Cc1cc(-n2nc(C(C)(C)C)[nH]c2=O)nc(C)c1Oc1ccnc(-c2cnn(C)c2)c1 [Example 33, 3-(tert-butyl)-1-(4,6-dimethyl-5-((2-(1-methyl-1H-pyrazol-4-yl)pyridin-4-yl)oxy)pyridin-2-yl)-1H-1,2,4-triazol-5(4H)-one]
10 to 100 | 10 to 100 | Cc1nc(-n2nc(C(C)(C)C)oc2=O)ccc1Oc1ccnc(-c2cnn(C)c2)c1 [Example 49, 5-(tert-butyl)-3-(6-methyl-5-((2-(1-methyl-1H-pyrazol-4-yl)pyridin-4-yl)oxy)pyridin-2-yl)-1,3,4-oxadiazol-2(3H)-one]
≤ 10 | ≤ 10 | Cc1nc(-n2nc(C3CCC3)[nH]c2=O)ccc1Oc1ccnc(-c2cnn(C)c2)c1 [Example 37, 3-cyclobutyl-1-(6-methyl-5-((2-(1-methyl-1H-pyrazol-4-yl)pyridin-4-yl)oxy)pyridin-2-yl)-1H-1,2,4-triazol-5(4H)-one]
≤ 10 | ≤ 10 | Cc1nc(-n2nc(C3CCCCC3)[nH]c2=O)ccc1Oc1ccnc(-c2cnn(C)c2)c1 [Example 6, 3-cyclohexyl-1-(6-methyl-5-((2-(1-methyl-1H-pyrazol-4-yl)pyridin-4-yl)oxy)pyridin-2-yl)-1H-1,2,4-triazol-5(4H)-one]
≤ 10 | 10 to 100 | CCC(C)(C)c1nn(-c2ccc(Oc3ccnc(-c4cnn(C)c4)c3)c(C)n2)c(=O)[nH]1 [Example 25, 1-(6-methyl-5-((2-(1-methyl-1H-pyrazol-4-yl)pyridin-4-yl)oxy)pyridin-2-yl)-3-(tert-pentyl)-1H-1,2,4-triazol-5(4H)-one]
10 to 100 | 10 to 100 | Cc1nc(-n2cc(C(C)(C)C)[nH]c2=O)ccc1Oc1ccnc(-c2cnn(C)c2)c1 [Example 48, 4-(tert-butyl)-1-(6-methyl-5-((2-(1-methyl-1H-pyrazol-4-yl)pyridin-4-yl)oxy)pyridin-2-yl)-1H-imidazol-2(3H)-one]
10 to 100 | 100 to 1000 | Cc1nc(-n2nc(C(C)(C)C)[nH]c2=O)ccc1Oc1ccnc(-c2cnco2)c1 [Example 39, 3-(tert-butyl)-1-(6-methyl-5-((2-(oxazol-5-yl)pyridin-4-yl)oxy)pyridin-2-yl)-1H-1,2,4-triazol-5(4H)-one]
≤ 10 | 100 to 1000 | Cc1nc(-n2nc(C3CCOCC3)[nH]c2=O)ccc1Oc1ccnc(-c2cnn(C)c2)c1 [Example 20, 1-(6-methyl-5-((2-(1-methyl-1H-pyrazol-4-yl)pyridin-4-yl)oxy)pyridin-2-yl)-3-(tetrahydro-2H-pyran-4-yl)-1H-1,2,4-triazol-5(4H)-one]
10 to 100 | 10 to 100 | Cc1cc(-c2cc(Oc3ccc(-n4nc(C(C)(C)C)[nH]c4=O)nc3C)ccn2)ccn1 [Example 9, 3-(tert-butyl)-1-(6-methyl-5-((2′-methyl-[2,4′-bipyridin]-4-yl)oxy)pyridin-2-yl)-1H-1,2,4-triazol-5(4H)-one]
≤ 10 | 10 to 100 | Cn1cc(-c2cc(Oc3ccc(-n4nc(Cc5ccc(F)cc5)[nH]c4=O)nc3)ccn2)cn1 [Example 3, 3-(4-fluorobenzyl)-1-(5-((2-(1-methyl-1H-pyrazol-4-yl)pyridin-4-yl)oxy)pyridin-2-yl)-1H-1,2,4-triazol-5(4H)-one]
≤ 10 | ≤ 10 | Cc1nc(-n2nc(CC(C)C)[nH]c2=O)ccc1Oc1ccnc(-c2cnn(C)c2)c1 [Example 22, 3-isobutyl-1-(6-methyl-5-((2-(1-methyl-1H-pyrazol-4-yl)pyridin-4-yl)oxy)pyridin-2-yl)-1H-1,2,4-triazol-5(4H)-one]
